# Assays:
# [1] = target: Histone-lysine N-methyltransferase EZH2 (Homo sapiens, UniProt Q15910, Y641F)
# [2] = target: T1, Histone-lysine N-methyltransferase EZH2 (Homo sapiens, UniProt Q15910)
# KARPAS-422 [3] = experiment: cells; format: functional, cell-based; settings: Homo sapiens
# SU-DHL-6 [4] = experiment: cells; format: functional, cell-based; settings: Homo sapiens
# Pfeiffer [5] = experiment: cells; format: functional, cell-based; settings: Homo sapiens
# KARPAS-422 [6] = experiment: cells; format: functional; settings: Homo sapiens
# HeLa = experiment: cells; format: functional, cell-based; settings: Homo sapiens
# [7] = target: T1, Histone-lysine N-methyltransferase EZH2; remark: listed apart in the source
# [8] = target: T1, Histone-lysine N-methyltransferase EZH2; remark: listed apart in the source
# [9] = target: Histone-lysine N-methyltransferase EZH2 (Homo sapiens, UniProt Q15910, Y641N)
# MCF7 [10] = experiment: cells; settings: Homo sapiens
# MDA-MB-468 = experiment: cells; settings: Homo sapiens
# cells = settings: Homo sapiens, MDA-MB-23
# [11] = target: T2, Protein cereblon/Histone-lysine N-methyltransferase EZH2 (Homo sapiens, UniProt Q15910+Q96SW2); format: cell-based, DOHH-2
# [12] = target: T2, Protein cereblon/Histone-lysine N-methyltransferase EZH2; format: cell-based, OCILY7
# SU-DHL-6 [13] = experiment: cells; format: functional, cell-based; settings: Homo sapiens; remark: listed apart in the source
# Pfeiffer [14] = experiment: cells; format: functional, cell-based; settings: Homo sapiens; remark: listed apart in the source
# MCF7 [15] = experiment: cells; format: functional, cell-based; settings: Homo sapiens, MCF7, 24 h
# PC-3 = experiment: cells; format: functional, cell-based; settings: Homo sapiens, PC-3, 24 h
# HepG2 = experiment: cells; format: functional, cell-based; settings: Homo sapiens, HepG2, 24 h
# Sequence of Histone-lysine N-methyltransferase EZH2 (Homo sapiens, UniProt Q15910, Y641F) (Q15910 whole entry Y641F): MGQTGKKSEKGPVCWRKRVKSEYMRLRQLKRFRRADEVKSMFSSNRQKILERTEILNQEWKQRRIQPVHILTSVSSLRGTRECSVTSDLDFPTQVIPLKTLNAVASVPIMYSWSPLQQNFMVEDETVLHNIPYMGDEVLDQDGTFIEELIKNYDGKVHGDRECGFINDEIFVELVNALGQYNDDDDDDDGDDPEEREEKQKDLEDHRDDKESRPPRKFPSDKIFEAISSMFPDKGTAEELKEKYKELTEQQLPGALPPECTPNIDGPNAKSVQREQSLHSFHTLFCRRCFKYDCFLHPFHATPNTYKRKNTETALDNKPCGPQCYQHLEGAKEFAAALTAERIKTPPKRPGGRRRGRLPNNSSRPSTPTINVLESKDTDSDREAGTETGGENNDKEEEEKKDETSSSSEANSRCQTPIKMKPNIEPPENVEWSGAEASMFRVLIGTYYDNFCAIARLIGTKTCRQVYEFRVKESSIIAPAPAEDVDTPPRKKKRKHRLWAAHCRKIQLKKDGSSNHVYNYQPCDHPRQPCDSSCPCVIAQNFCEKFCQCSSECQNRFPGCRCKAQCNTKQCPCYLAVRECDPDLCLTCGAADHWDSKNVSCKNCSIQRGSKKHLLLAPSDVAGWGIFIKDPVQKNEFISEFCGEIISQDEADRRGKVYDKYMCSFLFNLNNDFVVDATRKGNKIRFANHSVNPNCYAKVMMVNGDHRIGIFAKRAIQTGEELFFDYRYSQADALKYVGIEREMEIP
# T1 sequence (Q15910 whole entry): as the sequence (Q15910 whole entry Y641F) above, with F641Y counted along it
# Sequence of Histone-lysine N-methyltransferase EZH2 (Homo sapiens, UniProt Q15910, Y641N) (Q15910 whole entry Y641N): as the sequence (Q15910 whole entry Y641F) above, with F641N counted along it
# T2 sequence (Q15910 whole entry): as the sequence (Q15910 whole entry Y641F) above, with F641Y counted along it
# T2 sequence (Q96SW2 whole entry): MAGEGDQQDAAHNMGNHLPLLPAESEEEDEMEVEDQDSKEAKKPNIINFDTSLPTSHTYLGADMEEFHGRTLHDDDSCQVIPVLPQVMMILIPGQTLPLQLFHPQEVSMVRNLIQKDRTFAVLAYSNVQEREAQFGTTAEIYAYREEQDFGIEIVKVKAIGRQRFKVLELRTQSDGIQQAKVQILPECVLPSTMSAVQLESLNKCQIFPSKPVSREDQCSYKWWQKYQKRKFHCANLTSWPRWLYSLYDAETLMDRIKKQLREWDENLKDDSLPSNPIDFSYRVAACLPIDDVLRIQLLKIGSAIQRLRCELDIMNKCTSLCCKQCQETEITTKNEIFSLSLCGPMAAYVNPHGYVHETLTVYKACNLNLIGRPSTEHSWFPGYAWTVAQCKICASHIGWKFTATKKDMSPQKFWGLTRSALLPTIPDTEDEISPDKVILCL
compound,measurement,setting,value
CCN(c1cc(C(=O)NCc2c(OC)cc(C)[nH]c2=O)nc2c(-c3ccnc(NC)c3)cnn12)C1CCN(CC(F)(F)F)CC1,IC50,[1],≤ 100 nM
CCN(c1cc(Cl)cc(C(=O)NCc2c[nH]c(C)cc2=O)c1C)[C@H]1CC[C@H](N(C)C)CC1,IC50,[2],3 nM
C[C@H](C(=O)NC1COC1)c1cnc(NC[C@H]2CC[C@H](Nc3ccc4ccnc(Cl)c4n3)CC2)nc1,IC50,KARPAS-422 [3],0.3 nM
CCN(c1cc(-c2ccc(CN3CCOCC3)cc2)cc(C(=O)NCc2c3c(c(C)[nH]c2=O)CCCCC3)c1C)C1CCOCC1,IC50,SU-DHL-6 [4],> 30000 nM
same,IC50,Pfeiffer [5],27000 nM
CCCc1cc(C)[nH]c(=O)c1CNC(=O)c1cc(-c2ccc(N3CCOCC3)nc2)c2ccn(C(C)C)c2c1C,IC50,[2],0.01 nM
CSc1cc(C)[nH]c(=O)c1CNC(=O)c1cc(Cl)c2c(c1C)O[C@@](C)([C@H]1CC[C@H](N(C)C)CC1)O2,GI50,KARPAS-422 [6],4 nM
same,EC50,HeLa,0.51 nM
CCN(c1cc(-c2ccc(CN3CCOCC3)cc2)cc(C(=O)NCC2C(=O)NC(C)c3cccc(F)c32)c1C)C1CCOCC1 (stereo unspecified),IC50,[7],500 nM
COC1CN([C@H]2CC[C@H]([C@@H](C)c3sc4c(c3C)C(=O)N(Cc3c(C)cc(C)[nH]c3=O)CCC4)CC2)C1,IC50,[8],0.0097 nM
same,IC50,[1],0.92 nM
same,IC50,[7],2.65 nM
Cc1cc(C)c(CNC(=O)c2cc(-c3ccc(N4CCN(CCOCCC(=O)Nc5cccc6c5C(=O)N(C5CCC(=O)NC5=O)C6=O)CC4)nc3)c3c(cnn3C(C)C)c2)c(=O)[nH]1 (stereo unspecified),IC50,[2],7 nM
CCN(c1cc(C(=O)NCc2c(OC)cc(C)[nH]c2=O)nc2c(-c3ccnc(N(C)C)c3)cnn12)C1CCOCC1,IC50,[1],≤ 100 nM
C=CCC1(S(=O)(=O)N2CC(C)c3c(C(=O)NCc4c(C)cc(C)[nH]c4=O)cc(-c4ccc(N5CCN(C)CC5)nc4)cc32)CC1 (stereo unspecified),IC50,[9],1530 nM
same,IC50,[1],1530 nM
[2H]C([2H])(NC(=O)c1c(C)n([C@H](C)C2CCC(OC)CC2)c2ccccc12)c1c(SC)cc(C)[nH]c1=O (stereo partly specified),IC50,[2],0.54 nM
same,IC50,SU-DHL-6 [4],9.94 nM
CCN(c1cc(Br)cc(C(=O)NCc2c[nH]c(C)cc2=O)c1C)[C@H]1CC[C@H](N(C)C)CC1,IC50,[2],40 nM
CCN(c1cc(-c2ccc(CN3CCOCC3)cc2)cc(C(=O)NCc2c3c(c(C)[nH]c2=O)CCCC3)c1C)C1CCOCC1,IC50,SU-DHL-6 [4],20000 nM
same,IC50,Pfeiffer [5],19500 nM
CSc1cc(C)[nH]c(=O)c1CN1CCc2c(Cl)c3c(c(C)c2C1=O)O[C@@](C)([C@H]1CC[C@H](N(C)C)CC1)O3,GI50,KARPAS-422 [6],5.7 nM
same,EC50,HeLa,0.849 nM
CCN(c1cc(Cl)cc2c1C/C=C/CCc1cc(C)[nH]c(=O)c1CNC2=O)C1CCC(F)(F)CC1,IC50,[2],16 nM
O=C(c1cc(Cc2n[nH]c(=O)c3ccccc23)ccc1F)N1CCN(C(=O)C2CC2)CC1 [OLAPARIB],IC50,MCF7 [10],> 50000 nM
same,IC50,MDA-MB-468,35600 nM
same,IC50,cells,36900 nM
CCN(c1cc(-c2ccc(CN3CCN(C(=O)CCCCCNc4cccc5c4C(=O)N(C4CCC(=O)NC4=O)C5=O)CC3)cc2)cc(C(=O)NCc2c(C)cc(C)[nH]c2=O)c1C)C1CCOCC1 (stereo unspecified),IC50,[11],100 nM
same,IC50,[12],100 nM
CCC(C)n1cc(C)c2c(C(=O)NCC3=C(O)NN(CC)C3C)cc(-c3ccc(N4CCNCC4)nc3)cc21 (stereo unspecified),IC50,[8],230 nM
same,IC50,[1],1470 nM
Cc1cc(C)c(CN2CCc3c(Br)c4c(c(C)c3C2=O)OC(C)([C@H]2CC[C@H](N(C)C)CC2)O4)c(=O)[nH]1 (stereo partly specified),GI50,Pfeiffer [5],0.21 nM
same,GI50,KARPAS-422 [6],1.2 nM
Cc1cc(C)c(CNC(=O)c2cc(Cl)c3c(c2C)O[C@@](C)([C@H]2CC[C@H](N(C)C)CC2)O3)c(=O)[nH]1 [VALEMETOSTAT],GI50,KARPAS-422 [6],4.8 nM
C=CC(=O)Nc1nn(C(C)c2ccccc2)c(C)c1C(=O)NCc1c(C)cc(C)[nH]c1=O (stereo unspecified),IC50,[2],64 nM
CCCc1cc(C)[nH]c(=O)c1CNC(=O)c1cc(-c2ccc(N3CCNCC3)cc2)cc2c1ccc(=O)n2C(CC)CC,IC50,[8],11 nM
same,IC50,[1],9 nM
C=CCC1(S(=O)(=O)N2CCc3c(C(=O)NCc4c(C)cc(C)[nH]c4=O)cc(-c4ccc(N5CCN(C)CC5)nc4)cc32)CC1,IC50,[9],2590 nM
same,IC50,[1],2590 nM
CCN(c1cc(-c2ccc(CN3CCN(C)CC3)cc2)cc(C(=O)NCc2c3c(c(C)[nH]c2=O)CCCC3)c1C)C1CCOCC1,IC50,SU-DHL-6 [13],16000 nM
same,IC50,Pfeiffer [14],12.5 nM
COc1ccc(C2SCCC(=O)N2Nc2nc3cc(C)c(C)cc3[nH]2)cc1 (stereo unspecified),IC50,MCF7 [15],59700 nM
same,IC50,PC-3,66300 nM
same,IC50,HepG2,68300 nM
CC1=CCOc2c(Br)cc(C(=O)NCc3c(C)cc(C)[nH]c3=O)cc2C1,IC50,[2],> 1000 nM
C=CC(=O)Nc1nn(Cc2ccccc2)c(C)c1C(=O)NCc1c(C)cc(C)[nH]c1=O,IC50,[2],5240 nM
